Experiments:
[1] = system: anesthetized rats infused with hypotonic solution; assay: Antidiuretic effect on diuresis induced by hypotonic solution in anesthetized rats; assay type: in vivo, rat; conditions: 10 μg/kg intravenously
Procedure: The Study of Antidiuretic Effect-the Confirmation Study of Antidiuretic Effect on the Diuretic Activity Induced by Loading Hypotonic Solution in the Anesthetized Rats Infused with Hypotonic Solution
It has been reported that plasma AVP level was decreased with intravenous infusion of hypotonic solution (J. Endocrinol., Vol. 141, pp. 59-67, 1994). The antidiuretic effect of the test compounds in the rats induced a diuretic condition was determined by the method as reported by Angchanpen et al (Br. J. Pharmacol., Vol. 93, pp. 151-155, 1988). The test compounds were dissolved in dimethylsulfoxide at 10 mM, and used in the study. Male SD rats (200-400 g weight) were anesthetized with 100 mg/kg of Inactin (SIGMA) intraperitonealy and each cannula was inserted into trachea, jugular vein, bladder and femoral vein, respectively. […] The urine volume obtained via cannula inserted into bladder was measured every 10 minutes. […]
The average of urine volume measured for three 10 minutes periods before the administration was defined as the pre value (0%). After the administration of the test compounds, the urine volume was measured every 10 minutes. The antidiuretic effect, namely the decrease of the urine volume, induced by administration of test compounds was calculated from the decreasing rate of urine volume (minus %) against the pre value. […]

[2] = biological target: T1, cytochrome P-450 (CYP3A4) (Homo sapiens, UniProt P08684); assay: Inhibitory effect on cytochrome P-450 (CYP3A4) from human liver microsome; assay type: in vitro ADME; conditions: test compound 10 μM, testosterone 50 μM substrate, 5 minutes at 37° C., rate of substrate metabolism versus control
T1 construct: human liver microsome (1.0 mg/mL) as enzyme; from tissue; host or cells: human liver microsomes
Procedure: The Experiment for Inhibitory Effect on Cytochrome P-450 (CYP3A4) Originated from Human Liver Microsome
The test compounds dissolved in dimethylsulfoxide at 10 mM were added to 0.1 M phosphate buffer (pH7.4) containing 10 mM MgCl2, and human liver microsome (1.0 mg/mL) as enzyme and testosterone (50 μM) as a substrate for CYP3A4 were added to this 0.1M phosphate buffer in order to prepare phosphate buffer solution of the test compounds at final concentration of 10 μM (final volume 0.2 mL). The reaction was started by the addition of NADPH (1.0 mg/mL) and then incubated for 5 minutes at 37° C. After acetonitrile was added to stop the reaction, the residual concentration of testosterone was determined using LC/MS/MS, and calculated the rate of metabolism of substrate from the ratio of content of testosterone at end to that at start (A value). As the same way, the experiment except for the test compounds was carried out and remaining testosterone was determined in the same way as mentioned above. The rate of metabolism of substrate was calculated from the ratio of content of testosterone at end to that at start of the reaction (B value) as control value. The ratio of A value against B value was determined as a degree of incidence of test compounds on metabolic rate, which was shown in Table 70.

Male SD rats = assay: Acute toxicity test; assay type: in vivo, rat; conditions: 3 mg/kg intravenously, N=3, one hour observation, urethane anesthesia
Procedure: Male SD rats (250-300 g weight) were divided into some groups (N=3) and each cannula was inserted into trachea and jugular vein under anesthesia with urethane (1.5 g/kg, subcutaneously). The test compound solutions were prepared with an adequate solvent to be a dosage of 3 mg/kg, and then the solution was administered intravenously via cannula. The survival rate was determined for an hour experimental period.

human V2 receptor [3] = biological target: T2, human V2 receptor (Homo sapiens, UniProt P30518); assay: Binding experiment for human V2 receptor ([3H]-AVP displacement, CHO cell membranes); set-up: purchased Packard BioScience; host or cells: CHO cells (membranes); conditions: [3H]-AVP binding, CHO cell membranes expressing human V2 receptor; Ki calculated from IC50 and Kd
Procedure: Binding Experiment for Human V2 Receptor
Test compounds were dissolved in dimethylsulfoxide at 10 mM. The affinities for human V2 receptor were determined by an inhibition against [^3H]-Arginie vasopressin (AVP) (Perkin elmer Japan) binding to the human V2 receptor using CHO cell membranes expressed human V2 receptor (Packard BioScience). Cell membranes suspension was prepared by suspending the cell membranes as mentioned above with Assay buffer (50 mM Tris-HCl, 10 mM MgCl2, 0.1% bovine serum albumin (BSA), pH7.4) at an adequate protein concentration. The test compound solutions were prepared by diluting the dimethylsulfoxide solution of the test compound as mentioned above with Assay buffer at final concentration of 10 nM, 100 nM, 1 μM and 10 μM (in this diluting procedure, concentration of dimethylsulfoxide was adjusted to be 0.5% at each concentration of the test compound). Cell membranes suspension (50 μL), 3 nM of [^3H]-AVP (50 μL), Assay buffer (50 μL) and the solution of the test compounds at each concentrations (50 μL) were added to MultiScreen 96-well plate (Millipore) and the mixture was incubated for an hour at 25° C. with shaking slightly. After filtration by aspiration, the plate was washed with ice-cold washing buffer (50 mM Tris-HCl, 10 mM MgCl2, pH 7.4) for three times. After dry the plate, Microscinti-20 (Packard) was added to each well and the plate was shaken slightly, and then radioactivities of each well were counted with a micro plate scintillation counter, TopCount (Packard). Non-specific binding of [^3H]-AVP for cell membranes was determined by adding 1 μM of cold AVP substituted for the test compounds. The concentration of the test compounds inhibiting the specific binding of [^3H]-AVP by 50% was considered as IC50 value.
The Calculation of Kd Value of [^3H]-AVP for the Cell Membranes Expressed Human V2 Receptor
The suspension of the cell membranes expressed human V2 receptor was prepared with diluting adequately with the Assay buffer as mentioned above. In consideration for the radioactivity of [^3H]-AVP, six different concentrations (final concentration; ranging from approximately 100 pM to 6000 pM) of [^3H]-AVP were prepared by serial dilution by from 2 to 3 fold with the Assay buffer. The cell membranes suspension (50 μL), each concentrations of [^3H]-AVP (50 μL), the Assay buffer (50 μL) and 1 μM of cold AVP or the Assay buffer were added to MultiScreen 96-well plate (Millipore) and the mixture was incubated for an hour at 25° C. with shaking slightly. The specific bindings (Bvalue) of each concentrations of the [^3H]-AVP were determined by the method as mentioned above and free-bound contents (F value) at each concentrations of the [^3H]-AVP were determined. The Kd value was calculated by Scatchard analysis using the B value and the F value.

human V2 receptor [4] = biological target: T2, human V2 receptor; assay: Study to confirm the agonism of human V2 receptor (intracellular Ca2+, HEK293 cells coexpressing human V2 receptor and Gqs chimeric protein); assay type: cell-based; set-up: expressed in transfected cells; host or cells: HEK293 cells (American Type Culture Collection), transient transfection with pCI-neo/hV2 and pLEC-Gqs5; conditions: for EC50: intracellular Ca2+, HEK293 cells coexpressing human V2 receptor and Gqs; for IA (intrinsic activity): maximum response relative to AVP = 1
Procedure: The Study to Confirm the Agonism of Human V2 Receptor
The experiment to confirm the response of the test compounds to human V2 receptor was carried out using the cells prepared as described below in order to use this confirmation study to see the agonism of human V2 receptor of the test compounds.
The test compounds were dissolved in dimethylsulfoxide at 10 mM and solutions of the test compounds were prepared by 10-fold serial dilution with the Assay buffer (0.1% BSA, 20 mM HEPES/Hank's balanced salt solution, pH 7.4) at the concentration of 0.1 nM to 10 μM, which were used in this study.
Human V2 receptor couples with Gs protein, one of the G-coupling protein, and consequently produces cyclic adenosine 3′, 5′-monophosphate (cAMP) via adenylate cyclase. This cAMP produce can be substituted to intracellular increase of Ca^2+ with coexpressing Gqs, a chimeric protein, and human V2 receptor (Mol. Pharmacol., Vol. 50, pp. 885-890, 1996). The responses of the test compounds for human V2 receptor were quantified by measuring this intracellular Ca^2+. The changes of intracellular Ca^2+ after adding the test compounds at each concentration as mentioned above (0.1 nM to 10 μM) were measured with a FlexStation (Molecular Devices) using a FLIPR CALCIUM ASSAY KIT (Molecular Devices).
The intrinsic activities (IA) of the test compounds were calculated from the maximum response of the test compounds as that of AVP was considered to be 1. In case of a full agonist, the EC50 values of the test compounds were calculated as the maximum response of AVP was considered to be 100% and in the case of a partial agonist, EC50 values of test compounds were calculated as the maximum response of own test compounds were considered to be 100%. The concentration that achieved to 50% response of the maximum response in a concentration-response curve was considered as EC50 value. The values of EC50 obtained in this study were shown in Table 68 described below as indications of the agonism of human V2 receptor.
The Preparation of the Cells Using Confirmation Study of an Agonism of Human V2, Receptor (HEK293 Cells Coexpressed Human V2 Receptor and Gqs Chimeric Protein)
HEK293 cells (American Type Culture Collection) were incubated in the Eagle's Minimum Essential Medium (EMEM, Invitrogen) containing 1 mM sodium pyruvate, nonessential amino acids (0.1 mM), streptomycin (100 μg/mL), penicillin (100 U/mL), 10% fetal calf serum (Sanko chemicals) in an incubator with 5% CO2 at 37° C. The transfection was carried out by adding pCI-neo hV2 expression vector, expression vector inserted with the sequence coding Gqs chimeric protein (pLEC-Gqs5, LiveWare, Molecular Devices) and Lipofectamine2000 (Invitrogen), all diluted with OPTI-MEM I Reduced Serum Medium I (Invitrogen), to the cell suspension which was prepared from the confluent cells suspended with EMEM as mentioned above without antibiotics at 1×10^6 cells/mL. After the transfection, the cells (HEK293 cells coexpressed human V2 receptor and Gqs chimeric protein) were incubated in an incubator with 5% CO2 for two days and were used as cells for confirming agonism of human V2 receptor, and used for assessment of the test compounds. The expression plasmid vector of human V2 receptor represented as pCI-neo/hV2 above was constructed by the method as described below.
The Method of Construction of Human V2 Receptor Expression Plasmid Vector
cDNA library was obtained from reverse transcription of human kidney total RNA using SuperScript II RNase H-reverse transcriptase (Invitrogen) and oligo dT. The DNA fragment encoding human V2 receptor was amplified by the PCR method using the cDNA library as a template, primers used in combination of each forward primer (sequence no. 1-3 shown below) and each reverse primer (sequence no. 4-6 shown below) respectively and pfu DNA polymerase (Stratagene). This amplified DNA fragment and pCR-blunt kit (Invitrogen), a cloning plasmid vector, were ligated by a general method of the kit. […]

T2 sequence (P30518 whole entry): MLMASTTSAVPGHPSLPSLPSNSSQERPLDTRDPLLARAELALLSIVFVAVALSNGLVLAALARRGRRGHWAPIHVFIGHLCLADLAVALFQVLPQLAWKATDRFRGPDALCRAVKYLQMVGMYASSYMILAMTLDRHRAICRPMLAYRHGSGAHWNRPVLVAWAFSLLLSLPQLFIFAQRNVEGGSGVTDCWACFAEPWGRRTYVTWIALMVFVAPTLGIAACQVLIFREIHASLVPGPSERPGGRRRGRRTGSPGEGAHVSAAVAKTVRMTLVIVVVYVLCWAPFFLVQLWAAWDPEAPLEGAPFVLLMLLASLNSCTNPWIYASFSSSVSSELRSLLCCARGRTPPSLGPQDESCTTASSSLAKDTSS
T1 sequence (P08684 whole entry): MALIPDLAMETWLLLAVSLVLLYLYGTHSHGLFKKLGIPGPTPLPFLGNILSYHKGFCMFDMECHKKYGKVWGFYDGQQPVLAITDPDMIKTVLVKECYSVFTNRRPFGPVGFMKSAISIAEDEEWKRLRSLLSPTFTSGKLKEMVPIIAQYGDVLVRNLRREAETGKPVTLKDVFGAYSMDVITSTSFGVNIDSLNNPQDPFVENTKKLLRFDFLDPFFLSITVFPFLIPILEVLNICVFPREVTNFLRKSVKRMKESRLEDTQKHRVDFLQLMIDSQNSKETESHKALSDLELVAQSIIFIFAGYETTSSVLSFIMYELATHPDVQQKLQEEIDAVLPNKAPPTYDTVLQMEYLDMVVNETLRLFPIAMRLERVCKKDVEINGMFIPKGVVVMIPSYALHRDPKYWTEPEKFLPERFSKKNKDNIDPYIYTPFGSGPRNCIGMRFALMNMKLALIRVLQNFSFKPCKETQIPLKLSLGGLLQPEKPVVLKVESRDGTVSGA

| SMILES | Antidiuretic effect (decreasing rate of urine volume) ([1]; anesthetized male SD rats, against pre value) [% ^] | Duration time ([1]; period until decreasing rate of urine volume restored to −20%) [min] | (A value/B value) × 100 [2] | Dead (Male SD rats) | Ki (human V2 receptor [3]) [nM] | EC50 (human V2 receptor [4]) [nM] | IA (intrinsic activity) (human V2 receptor [4]) |
| --- | --- | --- | --- | --- | --- | --- | --- |
| CCOC(=O)CN1Cc2ccccc2N(C(=O)c2ccc(N3CCCC3)cc2Cl)CC1=O [Example 1-7, ethyl [1-(2-chloro-4-pyrro-lidin-1-ylbenzoyl)-3-ox-o-1,2,3,5-tetra-hydrobenzo[e]-1,4-di-azepin-4-yl]acetate] | −68.6 | 30 | 89.9 | 0/3 | 86.6 | 4 | 0.92 |
| Cc1nnc(CN2Cc3ccccc3N(C(=O)c3ccc(-n4cccn4)nc3)CC2=O)o1 [Example 1-29, 4-(5-methyl-1,3,4-oxadiazol-2-yl-methyl)-1-[6-(pyrazol-1-yl)py-ridine-3-carbonyl]-1,2,4,5-tetra-hydrobenzo[e]-1,4-di-azepin-3-one] |  |  |  |  |  | 50 | 0.93 |
| O=C(O)CN1Cc2ccccc2N(C(=O)c2ccc(OCC(F)(F)F)cc2Cl)CC1=O [Example 2-5, 1-[2-chloro-4-(2,2,2-trifluoroethoxy)-benzoyl]-3-oxo-1,2,3,5-tetrahydrobenzo[e]-1,4-diazepin-4-yl acetic acid] |  |  |  |  | 197 | 10 |  |
| Cc1cnc(CN2Cc3ccccc3N(C(=O)c3ccc(OCCO)cc3Cl)CC2=O)o1 [Example 2-21, 1-[2-chloro-4-(2-hydroxyethoxy)benzoyl]-4-(5-methyloxazole-2-ylmethyl)-1,2,4,5-tetrahydrobenzo[e]-1,4-diazepin-3-one] |  |  |  |  | 322 | 6 | 1.09 |
| O=C1CN(C(=O)c2ccc(N3CCCC3)cc2Cl)c2ccccc2CN1Cc1nnn[nH]1 [Example 15, 1-(2-Chloro-4-pyrrolidin-1-ylbenzoyl)-4-(1H-tetrazol-5-ylmethyl)-1,2,4,5-tetrahydrobenzo[e]-1,4-diazepin-3-one] |  |  |  |  | 97.7 | 1 | 1.09 |
| Cc1nnc(CN2Cc3ccccc3N(C(=O)c3ccc(OCCCO)nc3C)CC2=O)o1 [Example 31-8, 1-[6-(3-hydroxypropoxy)-2-methylpyridine-3-carbonyl]-4-(5-methyl-1,3,4-oxadiazol-2-ylmethyl)-1,2,4,5-tetrahydrobenzo[e]-1,4-diazepin-3-one] |  |  |  |  |  | 44 | 1.18 |
| O=C(O)CN1Cc2ccccc2N(C(=O)c2ccc(-c3ccccc3)cc2)CC1=O [Example 31-11, 1-(biphenyl-4-carbonyl)-3-oxo-1,2,3,5-tetrahydrobenzo[e]-1,4-diazepin-4-ylacetic acid] |  |  |  |  | 103 | 39 | 0.35 |
